Experimental data: article PMC2634962, “Poisoning Pyridoxal 5-Phosphate-Dependent Enzymes: A New Strategy to Target the Malaria Parasite Plasmodium falciparum” (PLoS ONE, 2009)

Legend:
[1] = target: T1, PfODC (bifunctional P. falciparum AdoMetDC/ODC) (Plasmodium falciparum, UniProt Q8IJ77); experiment: […]CO2 release from […]-L-ornithine by recombinant PfODC/AdoMetDC with […] PLP; assay type: biochemical; conditions: read-out: Inhibition of PfODC activity IC50-value [μM] ^a)
T1 construct: gene PF3D7_1033100; recombinant bifunctional P. falciparum AdoMetDC/ODC, strep tag
T1 sequence (Q8IJ77 1-72): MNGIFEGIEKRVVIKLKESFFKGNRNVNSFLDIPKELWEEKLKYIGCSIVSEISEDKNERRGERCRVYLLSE
T1 sequence (Q8IJ77 73-1434): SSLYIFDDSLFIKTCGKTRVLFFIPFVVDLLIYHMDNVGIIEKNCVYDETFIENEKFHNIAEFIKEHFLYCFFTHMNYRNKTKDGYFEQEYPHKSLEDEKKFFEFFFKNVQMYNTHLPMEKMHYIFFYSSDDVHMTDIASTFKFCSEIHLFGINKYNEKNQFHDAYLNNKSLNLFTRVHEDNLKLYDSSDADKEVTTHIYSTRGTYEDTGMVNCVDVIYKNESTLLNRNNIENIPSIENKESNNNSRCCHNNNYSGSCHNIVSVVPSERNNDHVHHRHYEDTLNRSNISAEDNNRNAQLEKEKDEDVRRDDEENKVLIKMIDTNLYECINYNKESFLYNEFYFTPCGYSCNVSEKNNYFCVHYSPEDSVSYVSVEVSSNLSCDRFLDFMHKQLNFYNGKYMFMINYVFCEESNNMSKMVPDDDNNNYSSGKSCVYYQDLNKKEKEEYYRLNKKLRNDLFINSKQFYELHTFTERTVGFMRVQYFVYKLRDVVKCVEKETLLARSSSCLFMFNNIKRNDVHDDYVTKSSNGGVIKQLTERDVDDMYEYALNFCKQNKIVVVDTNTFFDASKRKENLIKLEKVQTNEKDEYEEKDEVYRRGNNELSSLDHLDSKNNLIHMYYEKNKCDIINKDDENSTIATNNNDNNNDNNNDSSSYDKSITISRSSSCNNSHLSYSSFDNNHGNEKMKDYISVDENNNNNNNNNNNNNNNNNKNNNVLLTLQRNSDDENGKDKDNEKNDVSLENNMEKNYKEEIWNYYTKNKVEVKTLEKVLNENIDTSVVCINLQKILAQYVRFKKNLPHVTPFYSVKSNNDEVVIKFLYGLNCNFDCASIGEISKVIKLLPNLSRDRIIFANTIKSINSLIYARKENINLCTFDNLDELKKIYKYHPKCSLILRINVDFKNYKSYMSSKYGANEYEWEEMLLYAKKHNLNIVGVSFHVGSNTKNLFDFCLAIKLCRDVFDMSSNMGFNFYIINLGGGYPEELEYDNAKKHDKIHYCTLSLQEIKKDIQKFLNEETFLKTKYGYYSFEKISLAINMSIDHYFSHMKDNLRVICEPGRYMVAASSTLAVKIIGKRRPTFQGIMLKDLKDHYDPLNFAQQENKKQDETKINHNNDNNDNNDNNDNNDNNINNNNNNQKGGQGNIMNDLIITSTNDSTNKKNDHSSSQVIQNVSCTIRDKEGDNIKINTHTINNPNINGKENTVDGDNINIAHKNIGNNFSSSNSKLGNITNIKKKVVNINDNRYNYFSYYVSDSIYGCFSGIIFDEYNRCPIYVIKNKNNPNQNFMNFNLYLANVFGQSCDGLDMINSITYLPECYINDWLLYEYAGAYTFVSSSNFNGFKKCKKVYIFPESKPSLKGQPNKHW

[2] = target: T2, PfPdxK (pyridoxine/pyridoxal kinase) (Plasmodium falciparum, UniProt C6KT01); experiment: kinase assay with [γ-33P]-ATP, recombinant purified PfPdxK, specific activity; assay type: biochemical
T2 construct: gene PF3D7_0616000; recombinant, strep tag
T2 sequence (C6KT01 entry or part of it): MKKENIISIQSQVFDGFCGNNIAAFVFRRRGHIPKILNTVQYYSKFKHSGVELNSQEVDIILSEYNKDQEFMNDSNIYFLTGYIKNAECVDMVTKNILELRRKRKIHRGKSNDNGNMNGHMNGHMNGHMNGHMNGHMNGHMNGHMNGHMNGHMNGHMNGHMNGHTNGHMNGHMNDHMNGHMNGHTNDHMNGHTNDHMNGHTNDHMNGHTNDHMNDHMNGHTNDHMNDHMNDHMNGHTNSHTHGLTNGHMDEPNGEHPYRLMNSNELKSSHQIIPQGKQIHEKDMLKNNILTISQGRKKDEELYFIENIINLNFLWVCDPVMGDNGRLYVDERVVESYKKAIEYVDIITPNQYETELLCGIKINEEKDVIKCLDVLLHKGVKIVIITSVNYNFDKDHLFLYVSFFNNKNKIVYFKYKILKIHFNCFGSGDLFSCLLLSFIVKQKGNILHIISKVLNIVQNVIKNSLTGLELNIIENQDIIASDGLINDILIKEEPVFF

Structure (SMILES) | IC50 [1] [µM] | Specific activity of PfPdxK (nmol min^-1 mg^-1) ^a) [2] [nmol/min/mg]
COC(=O)C(Cc1c[nH]c2ccccc12)NCc1c(COP(=O)(O)O)cnc(C)c1O (centres unmarked) [PPT5] | 64 ± 13 | 
COC(=O)C(Cc1c[nH]c2ccccc12)NCc1c(CO)cnc(C)c1O (centres unmarked) [PT5] |  | 20 ± 2
COC(=O)C(Cc1c[nH]cn1)NCc1c(CO)cnc(C)c1O (centres unmarked) [PHME] |  | 64 ± 4
COC(=O)C(Cc1c[nH]cn1)NCc1c(COP(=O)(O)O)cnc(C)c1O (centres unmarked) [PPHME] | 58 ± 11 | 
COC(=O)[C@@H]1Cc2c([nH]c3ccccc23)[C@H](c2c(CO)cnc(C)c2O)N1 [PT3] |  | 38 ± 4
